According to patent US20240398805A1, “QUINAZOLINE DERIVED COMPOUNDS AS EGFR INHIBITORS AND THEIR USES THEREOF” (ACCUTAR BIOTECHNOLOGY INC., priority 2021, published 2024):

How the values were obtained:
Assay type in all cases: cell-based
[1] = tested on: HCC827-ASV cells (human EGFR exon 20 insertion mutant A769_D770insASV); assay: Cell growth inhibition (CellTiter-Glo, 3 days) in HCC827-ASV; settings: 72 h, 3 days after administration
How it was run: (§1)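 Growth inhibition used a CellTiter-Glo luminescence read-out after 3 days of compound exposure at various concentrations. Cells were plated the day before at 5000/well in RPMI plus 10% FBS. The lines are HCC827 transduced by lentivirus with codon-optimized EGFR ASV or ERBB2 YVMA exon 20 insertions.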

[2] = tested on: A431 cells; assay: Cell growth inhibition (CellTiter-Glo, 3 days) in A431; settings: Homo sapiens, A-431, 72 h, 3 days after administration
How it was run: (§2)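 HCC827 cells in RPMI/10% FBS and A431 cells in DMEM/10% FBS were seeded at 5000 cells/well and left overnight. Compound was then added over a concentration range for 3 days of incubation, and viability was read by CellTiter-Glo luminescence.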

[3] = tested on: HCC827 cells; assay: Cell growth inhibition (CellTiter-Glo, 3 days) in HCC827; settings: Homo sapiens, 72 h, 3 days after administration
How it was run: as §2

[4] = tested on: HCC827-YVMA cells (human ERBB2 exon20 insertion mutant A775_G776ins YVMA); assay: Cell growth inhibition (CellTiter-Glo, 3 days) in HCC827-YVMA; settings: 72 h, 3 days after administration
How it was run: as §1

[5] = tested on: HCC827-SVD cells (human EGFR exon 20 insertion mutant D770_N771 insSVD); assay: Cell growth inhibition (CellTiter-Glo, 3 days) in HCC827-SVD; settings: 72 h, 3 days after administration
How it was run: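 HCC827 cells carrying lentiviral codon-optimized EGFR D770_N771 insSVD, with endogenous EGFR knocked out by CRISPR (single clone), seeded at 5000 cells/well in RPMI with 10% FBS. Viability read by CellTiter-Glo luminescence.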

GI50 [1] [nM]	GI50 [2] [nM]	GI50 [3] [nM]	GI50 [4] [nM]	GI50 [5] [nM]	Compound
< 30	100 to 300	60 to 100	< 30	< 30	C=CC(=O)N1CCC(Nc2cc3c(Nc4ccc(Oc5ccnc(N6C[C@H](OC)[C@@H](OC)C6)c5)cc4F)ncnc3cc2OC)CC1 [Example 256, 1-(4-((4-((4-((2-((3S,4S)-3,4-dimethoxypyrrolidin-1-yl)pyridin-4-yl)oxy)-2-fluorophenyl)amino)-7-methoxyquinazolin-6-yl)amino)piperidin-1-yl)prop-2-en-1-one]
< 30	600 to 1000	60 to 100	< 30	< 30	C=CC(=O)N1CCC(Nc2cc3c(Nc4ccc(Oc5ccnc(N6C[C@@H]7OCCO[C@@H]7C6)n5)cc4F)ncnc3cc2OC)CC1 [Example 257, 1-(4-((4-((2-fluoro-4-((2-((4aR,7aS)-hexahydro-6H-[1,4]dioxino[2,3-c]pyrrol-6-yl)pyrimidin-4-yl)oxy)phenyl)amino)-7-methoxyquinazolin-6-yl)amino)piperidin-1-yl)prop-2-en-1-one]
< 30	600 to 1000	60 to 100	< 30	< 30	C=CC(=O)N1CCC(Nc2cc3c(Nc4ccc(Oc5ccnc(N6CC[C@@H](C#N)C6)c5)cc4F)ncnc3cc2OC)CC1 [Example 258, (R)-1-(4-(4-((6-((1-acryloylpiperidin-4-yl)amino)-7-methoxyquinazolin-4-yl)amino)-3-fluorophenoxy)pyridin-2-yl)pyrrolidine-3-carbonitrile]
< 30	≥ 1000	60 to 100	< 30	< 30	C=CC(=O)N1CCC(Nc2cc3c(Nc4ccc(Oc5ccnc(N6CC[C@H](C#N)C6)c5)cc4F)ncnc3cc2OC)CC1 [Example 259, (S)-1-(4-(4-((6-((1-acryloylpiperidin-4-yl)amino)-7-methoxyquinazolin-4-yl)amino)-3-fluorophenoxy)pyridin-2-yl)pyrrolidine-3-carbonitrile]
30 to 60	600 to 1000	100 to 300	30 to 60	30 to 60	C=CC(=O)N1CCC(Nc2cc3c(Nc4ccc(Oc5ccnc(N6CC(F)(F)C(F)(F)C6)c5)cc4F)ncnc3cc2OC)CC1 [Example 261, 1-(4-((4-((2-fluoro-4-((2-(3,3,4,4-tetrafluoropyrrolidin-1-yl)pyridin-4-yl)oxy)phenyl)amino)-7-methoxyquinazolin-6-yl)amino)piperidin-1-yl)prop-2-en-1-one]
30 to 60	600 to 1000	30 to 60	30 to 60	< 30	C=CC(=O)N1CCC(Nc2cc3c(Nc4ccc(Oc5ccnc(N6CCC(C)(C#N)C6)c5)cc4F)ncnc3cc2OC)CC1 (stereo not drawn) [Example 262, 1-(4-(4-((6-((1-acryloylpiperidin-4-yl)amino)-7-methoxyquinazolin-4-yl)amino)-3-fluorophenoxy)pyridin-2-yl)-3-methylpyrrolidine-3-carbonitrile]
< 30	600 to 1000	100 to 300	< 30	< 30	C=CC(=O)N1CCC(Nc2cc3c(Nc4ccc(Oc5ccnc(N6C[C@@H](F)[C@@H](OC)C6)c5)cc4F)ncnc3cc2OC)CC1 [Example 263, 1-(4-((4-((2-fluoro-4-((2-((3R,4S)-3-fluoro-4-methoxypyrrolidin-1-yl)pyridin-4-yl)oxy)phenyl)amino)-7-methoxyquinazolin-6-yl)amino)piperidin-1-yl)prop-2-en-1-one]
< 30	600 to 1000	60 to 100	< 30	< 30	C=CC(=O)N1CCC(Nc2cc3c(Nc4ccc(Oc5ccnc(N6C[C@H](F)[C@@H](F)C6)c5)cc4F)ncnc3cc2OC)CC1 [Example 264, 1-(4-((4-((4-((2-((3S,4S)-3,4-difluoropyrrolidin-1-yl)pyridin-4-yl)oxy)-2-fluorophenyl)amino)-7-methoxyquinazolin-6-yl)amino)piperidin-1-yl)prop-2-en-1-one]
< 30	100 to 300	30 to 60	< 30	< 30	C=CC(=O)N1CCC(Nc2cc3c(Nc4ccc(Oc5ccnc(N6CCC(C)(F)C6)c5)cc4F)ncnc3cc2OC)CC1 (stereo not drawn) [Example 265, 1-(4-((4-((2-fluoro-4-((2-(3-fluoro-3-methylpyrrolidin-1-yl)pyridin-4-yl)oxy)phenyl)amino)-7-methoxyquinazolin-6-yl)amino)piperidin-1-yl)prop-2-en-1-one]
